Test results reported in US20240122926A1, “APELIN RECEPTOR MODULATORS FOR TREATING MUSCLE CONDITIONS” (priority 2022, published 2024).
“Also recorded” adds a separate entry of the source.

Columns and labels:
[1] = Phase 1 study BGE-105-101 Part A (SAD), pharmacokinetics after IV infusion; format: in vivo, human; settings: for Dose-normalized AUCinf / Dose-normalized Cmax: unit assumed; for AUC(0-t) / AUC(0-inf) / half-life / Cmax: human, plasma; for AUC(0-t) / AUC(0-inf) / half-life: intravenous; for Cmax: iv, IV infusion
Method: After a baseline period of 24 hours in the clinic, all subjects receive a LD, 1-hour infusion on Day 1. After a 48-hour wash-out period, in which PK and PK/PD data is collected, subjects receive a 23-hour infusion (1-hour LD followed by a 22-hour maintenance dose). See FIG. 10 for the different dose levels in each SAD cohort. See e.g., Table 3 below. Part A is double-blinded. The cohorts of Part A is conducted sequentially starting with SAD cohort 1.
On Day 1 for Part A, subjects receive LD, 1-hour infusion. On Day 3, after a 48-hour washout period, subjects then receive a 23-hour infusion (1-hour LD followed by a 22-hour MD). No earlier than 24 hours after the end of infusion, subjects is discharged from the clinic on Day 5 (End of Treatment Period [EOTP]). A treatment protocol for the SAD cohorts of Part A is outlined in FIG. 12 and is described in Table 9 below.
Relevant plasma PK parameters are derived for BGE-105 by standard noncompartmental methods and tabulated along with descriptive statistics and graphs.

[2] = 9-month oral toxicity study in dogs; format: in vivo, dog
Method: (§1) The updated exposure margins considering the highest maximum exposures in rats and dogs are calculated as follows: maximum exposure in the rat (male) was in the 14-day IV study and at the 300 mg/kg dose, the AUClast is 1070 μg*hr/mL; maximum exposure in dogs occurred at the 300 mg/kg dose in the 9-month oral toxicity study and the AUClast is 1310*μg·hr/mL.

[3] = target: T1, human APLNR (Homo sapiens, UniProt P35414); assay: cell-based; settings: CHO, read-out: maximum effect (Emax)
T1 sequence (P35414 1-380): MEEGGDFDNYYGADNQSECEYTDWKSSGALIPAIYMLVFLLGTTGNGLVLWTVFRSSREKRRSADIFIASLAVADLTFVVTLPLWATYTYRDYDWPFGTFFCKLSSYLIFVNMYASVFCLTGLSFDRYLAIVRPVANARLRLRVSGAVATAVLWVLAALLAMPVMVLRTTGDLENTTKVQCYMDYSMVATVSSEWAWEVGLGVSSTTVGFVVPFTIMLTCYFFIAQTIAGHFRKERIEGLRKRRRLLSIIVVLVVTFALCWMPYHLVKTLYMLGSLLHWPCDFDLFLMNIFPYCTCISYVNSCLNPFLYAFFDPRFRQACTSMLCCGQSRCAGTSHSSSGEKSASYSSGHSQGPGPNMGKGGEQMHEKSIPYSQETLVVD
Method: APLNR activation was determined by β-arrestin recruitment as measured by the ProLink […] complementation technology (93-0001, DiscoveRx). In brief, CHO cells stably expressing APLNR were seeded and incubated overnight at 37° C. The compounds were tested in duplicate and diluted to obtain a 10-point curve with 3-fold serial dilutions (<1% DMSO). The compounds and cells were incubated for 3 hours at 37° C. After the incubation period the detection reagents were added and the plate chemiluminescent signal was measured after 30 min at RT.

[4] = 14-day IV study in rat (toxicology exposure); format: in vivo
Method: as §1

[5] = system: healthy volunteers aged ≥65 years; assay: Phase 1b bed rest study, safety (TEAEs); format: in vivo
Method: Adverse events are coded using the Medical Dictionary for Regulatory Activities. The number of events, incidence, and percentage of TEAEs are calculated overall by system organ class, preferred term, and treatment group for each cohort and treatment group. The number and percentage of subjects with TEAEs are further summarized by severity and relationship to study drug. AEs related to study drug, AEs leading to withdrawal, SAEs, and deaths are also similarly summarized and/or listed in a similar manner.

[6] = system: 24-month-old C57BL/6 mice; assay: Activity monitoring wheel test in aged mice (frailty study); format: in vivo, mouse; settings: 275 ug/mL in drinking water; both experiments; average
Method: The animals were housed with access to voluntary running wheels that wirelessly transmit running data to a computer for analysis. Voluntary running wheel activity levels were measured daily, and body weights were measured every 2 weeks.
The study concluded on Study Day 83. Activity wheel monitoring started on Study Day 1 and ended on Study Day 83 (Phase Day 64). The data was analyzed at the end of the study. […] For the frailty portion of the study, mice were assessed using an activity monitoring wheel which was monitored passively with a computer monitoring system.
BGE-105 was administered in drinking water consumed ad libitum. The compound is mildly acidic when dissolved, resulting in a pH 4.5 solution. The deionized water was adjusted to pH 8.5 by adding 1N NaOH. […]
The activity-monitoring wheel is a running disk that monitors rotations. […] Activity was monitored passively and wirelessly with a computer monitoring system. Running wheel activity levels were monitored daily. […] Mouse activity levels were measured as the number of wheel revolutions per day for each mouse and converted into a daily count of kilometers run using the diameter of the wheel. Within each experimental group, the daily median value for activity was calculated. […] The daily differences between the distances run in each group were calculated and tested for an increasing trend using Kendall's rank correlation tau.

[7] = SAD1 (60 mg/360 mg), Day 1, mean
[8] = SAD2 (120 mg/720 mg), Day 1, mean
[9] = SAD3 (240 mg/1440 mg), Day 1, mean

Structure (SMILES): COc1cccc(OC)c1-n1c(NS(=O)(=O)[C@@H](C)[C@H](C)c2ncc(C)cn2)nnc1-c1cncc(C)c1 [BGE-105, (2S,3R)—N-(4-(2,6-dimethoxyphenyl)-5-(5-methyl-3-pyridinyl)-4H-1,2,4-triazol-3-yl)-3-(5-methyl-2-pyrimidinyl)-2-butanesulfonamide]
- dose proportionality / linearity of PK ([1]; 3 SAD cohorts, dose vs Cmax and AUC): dose proportionality; also recorded: linear
- Dose-normalized AUCinf [1, 7]: 0.66 µg·h/mL/mg
- Dose-normalized Cmax [1, 7]: 0.12 µg/mL/mg
- Dose-normalized AUCinf [1, 8]: 0.49 µg·h/mL/mg
- Dose-normalized Cmax [1, 8]: 0.11 µg/mL/mg
- Dose-normalized AUCinf [1, 9]: 0.5 µg·h/mL/mg
- Dose-normalized Cmax [1, 9]: 0.11 µg/mL/mg
- AUC(0-t) ([1]; 60 mg, SAD1 (60 mg/360 mg), Day 1, mean, read-out: AUC0-24): 34.7 µg·h/mL
- AUC(0-t) ([1]; 60 mg, SAD1 (60 mg/360 mg), Day 1, mean, read-out: AUClast): 37.4 µg·h/mL
- AUC(0-t) ([1]; 120 mg, SAD2 (120 mg/720 mg), Day 1, mean, read-out: AUC0-24): 53.7 µg·h/mL
- AUC(0-t) ([1]; 120 mg, SAD2 (120 mg/720 mg), Day 1, mean, read-out: AUClast): 56.8 µg·h/mL
- AUC(0-t) ([1]; 240 mg, SAD3 (240 mg/1440 mg), Day 1, mean, read-out: AUC0-24): 107 µg·h/mL
- AUC(0-t) ([1]; 240 mg, SAD3 (240 mg/1440 mg), Day 1, mean, read-out: AUClast): 114 µg·h/mL
- AUC(0-t) ([1]; SAD1 (60 mg/360 mg), Day 3, mean, read-out: AUC0-24): 173 µg·h/mL
- AUC(0-t) ([1]; SAD1 (60 mg/360 mg), Day 3, mean, read-out: AUClast): 306 µg·h/mL
- AUC(0-t) ([1]; SAD2 (120 mg/720 mg), Day 3, mean, read-out: AUC0-24): 267 µg·h/mL
- AUC(0-t) ([1]; SAD2 (120 mg/720 mg), Day 3, mean, read-out: AUClast): 450 µg·h/mL
- AUC(0-t) ([1]; SAD3 (240 mg/1440 mg), Day 3, mean, read-out: AUC0-24): 612 µg·h/mL
- AUC(0-t) ([1]; SAD3 (240 mg/1440 mg), Day 3, mean, read-out: AUClast): 1060 µg·h/mL
- AUC(0-t) ([1]; highest dose (240 mg/1440 mg), read-out: AUClast): 1060 µg·h/mL
- AUC(0-inf) [1, 7]: 39.6 µg·h/mL
- half-life [1, 7]: 9.1 h
- AUC(0-inf) [1, 8]: 58.8 µg·h/mL
- half-life [1, 8]: 8.6 h
- AUC(0-inf) [1, 9]: 119 µg·h/mL
- half-life [1, 9]: 8.9 h
- Cmax ([1]; 60 mg, SAD1 (60 mg/360 mg), Day 1, mean): 7430 ng/mL
- Cmax ([1]; 120 mg, SAD2 (120 mg/720 mg), Day 1, mean): 13700 ng/mL
- Cmax ([1]; 240 mg, SAD3 (240 mg/1440 mg), Day 1, mean): 26700 ng/mL
- Cmax ([1]; SAD1 (60 mg/360 mg), Day 3, mean): 10100 ng/mL
- Cmax ([1]; SAD2 (120 mg/720 mg), Day 3, mean): 14800 ng/mL
- Cmax ([1]; SAD3 (240 mg/1440 mg), Day 3, mean): 35600 ng/mL
- predicted human exposure margin Human:Dog ([2]; 240 mg loading dose + 1440 mg IV for 22 hours, 1036/1310): 0.79
- NOAEL ([2]; dog): maximum dose tested
- AUC(0-t) ([2]; dog, in vivo, dogs, 9-month oral toxicity study, 300 mg/kg, read-out: AUClast, maximum exposure): 1310 µg·h/mL
- Emax [3]: 114%
- predicted human exposure margin Human:Rat ([4]; 240 mg loading dose + 1440 mg IV for 22 hours, 1036/1070): 0.97
- AUC(0-t) ([4]; in vivo, rat (male), 14-day IV study, 300 mg/kg, read-out: AUClast, maximum exposure): 1070 µg·h/mL
- NOAEL ([4]; rat): maximum dose tested
- number of volunteers (out of 11) exhibiting TEAEs ([5]; Cohort 1B): 7
- percent of volunteers exhibiting TEAEs ([5]; Cohort 1B): 64%
- serious / severe adverse effects ([5]; Phase 1b bed rest study): no serious adverse effects; also recorded: no severe adverse effects
- tolerability ([5]; Phase 1b bed rest study): well tolerated
- distance run more than vehicle-treated mice at end of experimental period [6]: at least 1 km/day
